Experimental data taken from ChEMBL document CHEMBL1126598, “Novel nonopioid non-antiinflammatory analgesics: 3-(aminoalkyl)- and 3-[(4-aryl-1-piperazinyl)alkyl]oxazolo[4,5-b]pyridin-2(3H)-ones” (J Med Chem, 1993).
Calls of active or inactive are those of the source. No cut-off for these calls is given here.

Legend:
Mus musculus [1] = organism: Mus musculus; assay: Analgesic activity in mice using p-phenylquinone test.; format: functional
Rattus norvegicus [2] = assay: Anti-inflammatory effect expressed as % inhibition at 50 mg/kg in acute carrageenan paw edema test in rats; format: functional
[3] = Percent mortality in mice after oral administration (750 mg/kg) using acute toxicity assay; format: organism-based; conditions: mouse, in vivo
Mus musculus [4] = assay: General behavior in mice after oral administration (750 mg/kg) using acute toxicity assay; Convulsions; format: functional, organism-based
Mus musculus [5] = assay: General behavior in mice after oral administration (1000 mg/kg) using acute toxicity assay; Convulsions; format: functional, organism-based
[6] = Percent mortality in mice after oral administration (1000 mg/kg) using acute toxicity assay; format: organism-based; conditions: mouse, in vivo
Mus musculus [7] = assay: General behavior in mice after oral administration (1000 mg/kg) using acute toxicity assay; Normal; format: functional, organism-based
Rattus norvegicus [8] = assay: Anti-inflammatory effect expressed as % inhibition at 100 mg/kg in acute carrageenan paw edema test in rats; format: functional
Mus musculus [9] = assay: General behavior in mice after oral administration (500 mg/kg) using acute toxicity assay; Convulsions; format: functional, organism-based
[10] = Percent mortality in mice after oral administration (500 mg/kg) using acute toxicity assay; format: organism-based; conditions: mouse, in vivo
Mus musculus [11] = assay: General behavior in mice after oral administration (500 mg/kg) using acute toxicity assay; Increased muscular tonus; format: functional, organism-based
Mus musculus [12] = assay: General behavior in mice after oral administration (1000 mg/kg) using acute toxicity assay; decreased locomotor activity, decreased muscular tonus; format: functional, organism-based
Mus musculus [13] = assay: General behavior in mice after oral administration (1000 mg/kg) using acute toxicity assay; sedation, decreased muscular tonus; format: functional, organism-based
Mus musculus [14] = assay: General behavior in mice after oral administration (1000 mg/kg) using acute toxicity assay; Increased muscular tonus; format: functional, organism-based
Rattus norvegicus [15] = assay: Anti-inflammatory effect expressed as % inhibition at 50 mg/kg in acute carrageenan paw edema test in rats; No inhibition; format: functional, organism-based; parameters: dose 50 mg/kg
Mus musculus [16] = assay: General behavior in mice after oral administration (1000 mg/kg) using acute toxicity assay; convulsions; format: functional, organism-based
Rattus norvegicus [17] = assay: Anti-inflammatory effect expressed as % inhibition at 100 mg/kg in acute carrageenan paw edema test in rats; No inhibition; format: functional, organism-based; parameters: dose 100 mg/kg
Mus musculus [18] = assay: General behavior in mice after oral administration (1000 mg/kg) using acute toxicity assay; normal; format: functional, organism-based
Mus musculus [19] = assay: General behavior in mice after oral administration (1000 mg/kg) using acute toxicity assay; decreased locomotor activity, increased muscular tonus; format: functional, organism-based
Mus musculus [20] = assay: General behavior in mice after oral administration (1000 mg/kg) using acute toxicity assay; decreased muscular tonus; format: functional, organism-based
Mus musculus [21] = assay: General behavior in mice after oral administration (1000 mg/kg) using acute toxicity assay; Increased locomotor activity, convulsive tendency; format: functional, organism-based

| Compound | ED50 (Mus musculus [1]) | inhibition in vivo at 50 mg/kg (Rattus norvegicus [2]) | mortality [6] | also measured |
| --- | --- | --- | --- | --- |
| COc1ccc2c3c1O[C@H]1[C@@H](O)C=C[C@H]4[C@@H](C2)N(C)CC[C@@]341 [CODEINE] | 9.7 mg/kg | 20% |  | mortality [3]: 40%; Behavior (Mus musculus [4]): Active |
| O=c1oc2cccnc2n1CCCCN1CCN(c2ccccc2)CC1 | > 25 mg/kg |  | 100% | Behavior (Mus musculus [5]): Convulsions |
| Cc1ccc2oc(=O)n(CCN3CCN(c4ccccc4)CC3)c2n1 | > 50 mg/kg |  | 0% | Behavior (Mus musculus [7]): Normal; inhibition in vivo at 100 mg/kg (Rattus norvegicus [8]): 2% |
| CCN(CC)CCn1c(=O)oc2cccnc21 | > 25 mg/kg |  | 83% | Behavior (Mus musculus [5]): Convulsions |
| O=c1oc2cccnc2n1CCN1CCN(c2ccccc2)CC1 | 19.4 mg/kg | 13% | 0% | Behavior (Mus musculus [7]): Normal |
| O=c1oc2cccnc2n1CN1CCN(c2cccc(Cl)c2)CC1 | 10.5 mg/kg | 27% |  | Behavior (Mus musculus [9]): Convulsions; mortality [10]: 100% |
| O=c1oc2cccnc2n1CN1CCN(c2cccc(C(F)(F)F)c2)CC1 | 3.6 mg/kg | 25% |  | Behavior (Mus musculus [11]): Increased muscular tonus; mortality [10]: 50% |
| O=c1oc2cccnc2n1CCCN1CCN(c2ccccc2)CC1 | 15.5 mg/kg | 16% | 10% | Behavior (Mus musculus [12]): decreased locomotor activity, decreased muscular tonus |
| O=c1oc2cccnc2n1CN1CCN(c2ccc(F)cc2)CC1 | 3.5 mg/kg |  |  | Behavior (Mus musculus [9]): Convulsions; mortality [10]: 100% |
| O=c1oc2ccccc2n1CCN1CCN(c2ccccc2)CC1 | > 50 mg/kg | 1% | 0% | Behavior (Mus musculus [13]): sedation, decreased muscular tonus |
| O=c1oc2cccnc2n1CCN1CCOCC1 | > 25 mg/kg |  | 50% | inhibition in vivo at 100 mg/kg (Rattus norvegicus [8]): 7%; Behavior (Mus musculus [14]): Increased muscular tonus |
| O=C(OCC(O)CO)c1ccccc1Nc1ccnc2cc(Cl)ccc12 (stereo not drawn) [GLAFENINE] | 29.3 mg/kg | 36% | 30% | Behavior (Mus musculus [7]): inactive |
| O=c1oc2cccnc2n1CCCN1CCN(c2cccc(C(F)(F)F)c2)CC1 | 22 mg/kg |  | 50% | inhibition (Rattus norvegicus [15]): inactive; Behavior (Mus musculus [16]): convulsions |
| COc1ccccc1N1CCN(Cn2c(=O)oc3cccnc32)CC1 | > 25 mg/kg | 15% |  | Behavior (Mus musculus [9]): Convulsions; mortality [10]: 100% |
| O=c1oc2ccccc2n1CCN1CCN(c2cccc(C(F)(F)F)c2)CC1 | 30.2 mg/kg |  | 0% | inhibition (Rattus norvegicus [15]): inactive; Behavior (Mus musculus [7]): Normal |
| CN1CCN(CCn2c(=O)oc3cccnc32)CC1 | > 25 mg/kg |  | 50% | Behavior (Mus musculus [5]): Convulsions; inhibition (Rattus norvegicus [17]): inactive |
| O=c1oc2cccnc2n1CN1CCN(c2ccccc2)CC1 | 5.9 mg/kg | 11% |  | Behavior (Mus musculus [9]): Convulsions; mortality [10]: 70% |
| O=c1oc2cccnc2n1CCN1CCCCC1 | > 25 mg/kg |  | 66% | Behavior (Mus musculus [16]): convulsions; inhibition in vivo at 100 mg/kg (Rattus norvegicus [8]): 21% |
| O=c1oc2cccnc2n1CCN1CCN(c2ccc(Oc3ccccc3)cc2)CC1 | > 50 mg/kg |  | 0% | Behavior (Mus musculus [18]): normal |
| O=c1oc2cccnc2n1CN1CCN(c2ccc(Cl)cc2)CC1 | 10.6 mg/kg | 23% |  | Behavior (Mus musculus [9]): Convulsions; mortality [10]: 90% |
| O=c1oc2cc(Br)cnc2n1CCN1CCN(c2ccccc2)CC1 | 34.1 mg/kg |  | 0% | Behavior (Mus musculus [18]): normal |
| O=c1oc2cccnc2n1CCN1CCN(c2ccc(Cl)cc2)CC1 | > 50 mg/kg |  | 0% | Behavior (Mus musculus [19]): decreased locomotor activity, increased muscular tonus |
| O=c1oc2cccnc2n1CCN1CCN(c2ccc(F)cc2)CC1 | 41.3 mg/kg | 16% | 0% | Behavior (Mus musculus [20]): decreased muscular tonus |
| O=c1oc2cccnc2n1CN1CCN(c2ccccc2Cl)CC1 | 22.2 mg/kg |  |  | inhibition (Rattus norvegicus [15]): inactive; Behavior (Mus musculus [9]): Convulsions; mortality [10]: 100% |
| COc1ccccc1N1CCN(CCn2c(=O)oc3cccnc32)CC1 | > 50 mg/kg |  | 0% | Behavior (Mus musculus [7]): Normal; inhibition (Rattus norvegicus [17]): inactive |
| O=c1oc2cccnc2n1CCN1CCN(c2cccc(C(F)(F)F)c2)CC1 | 11.4 mg/kg |  | 0% | Behavior (Mus musculus [21]): Increased locomotor activity, convulsive tendancy; inhibition (Rattus norvegicus [15]): inactive |
